Literature values as cited in patent publication US8143269B2, “Inhibitors of store operated calcium release” (Calcimedica, Inc., priority 2008, dated 2012).

Assays:
[1] = target: STIM1 and Orai1 in human embryonic kidney 293 cells (HEK293 cells) (Homo sapiens, UniProt Q96D31); conditions: HEK293 cells coexpressing STIM1 and Orai1
Chain of STIM1 and Orai1 in human embryonic kidney 293 cells (HEK293 cells) (Q96D31 whole entry): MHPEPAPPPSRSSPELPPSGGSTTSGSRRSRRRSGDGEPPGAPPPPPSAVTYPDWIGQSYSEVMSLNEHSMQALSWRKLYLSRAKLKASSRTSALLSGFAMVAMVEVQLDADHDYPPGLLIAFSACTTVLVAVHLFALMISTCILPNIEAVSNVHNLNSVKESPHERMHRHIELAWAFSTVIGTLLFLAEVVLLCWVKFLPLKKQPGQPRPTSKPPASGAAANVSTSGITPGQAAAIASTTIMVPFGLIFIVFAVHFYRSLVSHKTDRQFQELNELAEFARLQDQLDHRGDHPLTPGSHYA

| Structure (SMILES) | block of store-dependent Ca2+ entry [1] | inhibition of SOCE (colon cancer cells) | inhibition of proliferation (colon cancer cells) | inhibition of SOCE (Jurkat cells) | inhibition of proliferation (Jurkat cells) |
| --- | --- | --- | --- | --- | --- |
| NCCOB(c1ccccc1)c1ccccc1 [2-aminoethoxydiphenylborate] | completely blocked | – | – | – | – |
| Cc1nnsc1C(=O)Nc1ccc(-n2nc(C(F)(F)F)cc2C(F)(F)F)cc1 [BTP-2] | – | inhibits | inhibits | inhibits | inhibits |
